Each structure is given as a SMILES string.

Holding throughout (format): cell-based, Human
One experiment concerns Hucct1R132H/+ cells. Put plainly: Western blot of phosphorylated γH2AX (marker of DSBs), Hucct1^R132H/+ cells. The settings on record: 0.2 μM TG02, 16 h, FIG. 7B. Here is the method: Western blot. […] Then the pellets were lysed in lysis buffer (Beyotime, China) which additionally included a protease inhibitor cocktail (Beyotime, China) and phosphatase inhibitor cocktail (Beyotime, China). Cells were incubated on ice for 30 minutes and then centrifuged at 4 °C, 12000 rpm for 10 minutes to obtain the supernatant as cell lysate. The concentrations of protein in cell lysate were determined by Micro BCA™ Protein Assay Kit (ThermoFisher, USA). 4×SDS-PAGE Sample Loading Buffer (SolarBio, China) was added into cell lysate contained 25 μg of total protein and, after boiling, the mixture was electrophoresed in polyacrylamide gel. After electrophoresis, proteins on the gel were transferred to PVDF membrane, and the membrane was cut at position close to the molecular weights of proteins whose expression was examined (pH2AX (CST, USA), GAPDH (ZSGB-BIO, China)).
In FIG. 7A, IDH1-mutant Hucct1 cells (Hucct1^R132H/+) were generated by lentivirus expressing IDH1 R132H. Hucct1, Hucct1^R132H/+ and HT-1080 cells were treated with 0.2 μM TG02 or 0.1% DMSO for 48 h. Cells were used to comet assays. Quantification of Tail moment in neutral comet assay is presented. ns: no significant differences; ***: P<0.001, ****: P<0.0001, compared with NC; #: P<0.05, compared with Hucct1 cells treated with TG02. […]
For orientation: A western blot detects proteins with antibodies after separation by electrophoresis.

The next experiment concerns mutant IDH1 cancer cells. The experiment in a line: Overall conclusion on DNA damage and cell-killing in mutant IDH1 versus homozygous wild-type IDH1 cancer cells. The following applies: mutant IDH1 relative to homozygous wild-type IDH1 cancer cells. Here is the method: (§1) Apoptosis Assay. HT-1080, RBE, Hccc-9810, and Hucct-1 cells were treated with the indicated drugs. Apoptosis was detected by Annexin V/PI staining kit (Thermo Fisher) according to the manufacturer's instructions. Briefly, cells were plated at a density of 1× 10^5 cells/well in media with 10% FBS with desired concentrations of TG02. At 48/72-hour post-treatment the cells were harvested and tested for apoptosis by Annexin V and PI staining. Cell analysis was performed using a FACSCelesta (BD).
(§2) Comet assay. The comet assay is common technique for measurement of DNA damage in individual cells. Under an electrophoretic field, damaged cellular DNA (containing fragments and strand breaks) is separated from intact DNA, yielding a classic “comet tail” shape under the microscope. DNA damage was assayed by OxiSelect™ Comet Assay Kit (CELL BIOLABS, INC.) according to the manufacturer's instructions. Briefly, comet agarose was pipetted onto the OxiSelect™ Comet Slide to form a base layer. Cells were combined with OxiSelect™ Comet agarose at 37 °C, then the agarose/cell mixture was pipetted onto the top of the base layer. Cells were treated with lysis buffer and alkaline solution. Electrophoresis was performed under neutral conditions. […]
Western blot. […] The concentrations of protein in cell lysate were determined by Micro BCA™ Protein Assay Kit (ThermoFisher, USA). […]

Another experiment relates to HT-1080. The experiment in a line: Apoptosis assay (Annexin V/PI staining, FACS), HT-1080 cells. The settings on record: 0.2 μM TG02; IDH1-mutant chondrosarcoma HT-1080; compared with IDH1-WT (Hucct-1); FIGS. 2A-2B. How it is done:
(§3) Cell Culture. Human Chondrosarcoma cell line HT-1080 was cultured in MEM (Gibco, USA) supplemented with 10% fetal bovine serum (FBS, Gemini, USA). Human cholangiocarcinoma cell lines RBE, Hccc-9810, and Hucct-1 were cultured in RPMI1640 (Hyclone, USA) supplemented with 10% FBS. Cells were incubated at 37 °C in 5% CO2.
as §1

A further experiment concerns Hucct1^R132H/+ cells. Put plainly: Neutral comet assay (Tail moment), Hucct1^R132H/+ cells. The following applies: 0.2 μM TG02, 48 h, compared with Hucct1 treated with TG02, FIG. 7A. Here is the method: as §3, §2
In FIG. 7A, IDH1-mutant Hucct1 cells (Hucct1^R132H/+) were generated by lentivirus expressing IDH1 R132H. […] Quantification of Tail moment in neutral comet assay is presented. ns: no significant differences; ***: P<0.001, ****: P<0.0001, compared with NC; #: P<0.05, compared with Hucct1 cells treated with TG02. […]

Experiment [1] has as its system mutant IDH1 (HT-1080) cells. The experiment in a line: Neutral comet assay (DNA damage), HT-1080 cells. The following applies: for rescue of TG02-induced DNA damage: exogenous α-KG or AG-120 with TG02, 48 h. Here is the method:
as §3
Comet assay. The comet assay is common technique for measurement of DNA damage in individual cells. Under an electrophoretic field, damaged cellular DNA (containing fragments and strand breaks) is separated from intact DNA, yielding a classic “comet tail” shape under the microscope. DNA damage was assayed by OxiSelect™ Comet Assay Kit (CELL BIOLABS, INC.) according to the manufacturer's instructions. Briefly, comet agarose was pipetted onto the OxiSelect™ Comet Slide to form a base layer. Cells were combined with OxiSelect™ Comet agarose at 37 °C, then the agarose/cell mixture was pipetted onto the top of the base layer. Cells were treated with lysis buffer and alkaline solution. Electrophoresis was performed under neutral conditions. The slides were viewed by epifluorescence microscopy using a FITC filter.
Tail Moment=(100×Tail DNA Intensity/Cell DNA Intensity)×Tail Moment Length

Another experiment relates to Hccc-9810. The experiment in a line: Apoptosis assay (Annexin V/PI staining, FACS), Hccc-9810 cells. Here is the method: as §3, §1
The next experiment deals with RBE. Put plainly: Apoptosis assay (Annexin V/PI staining, FACS), RBE cells. The settings on record: 0.2 μM TG02; IDH1-mutant cholangiocarcinoma RBE; compared with IDH1-WT (Hucct-1); FIGS. 2A-2B. How it is done: as §3, §1
The test system of experiment [2] is Hucct-1 cells transfected with IDH1 R132H plasmid. Put plainly: Apoptosis assay (FACS), Hucct-1 cells transfected with IDH1 R132H plasmid. The following applies: 0.1 μM TG02, 72 h; Hucct-1 transfected with IDH1 R132H; FIG. 3A. How it is done:
as §3, §1
Transfection. The day before transfection, cells (~2×10^5/well) were seeded in a 6-well plate. The cells were cultured in a 37 °C in 5% CO2 incubator overnight. The old medium was removed and 2 ml of transfection medium was added. 50 μl opti-MEM was added to a tube, and then 2 μg plasmid DNA Mix solution was mixed by vortexing. 4 μl PEI solution was added to this tube, and the solution was mixed by gently pipetting up and down. The samples were incubated at room temperature for 15 min to allow the PEI/DNA complexes to form. […]

In experiment [3] the test system is mutant IDH1 cells (Hccc-9810). Put plainly: Western blot of pH2AX (marker of DNA damage), Hccc-9810 cells. The settings on record: exogenous AG-120 with TG02, 48 h; WB; FIG. 6. How it is done:
as §3
Western blot. Hccc-9810 and Hucct-1 cells treated with TG02 or AG120 as indicated for 48 h (0.1% DMSO was added as control) were harvested and centrifuged at 500 g for 5 minutes to obtain cell pellets. Then the pellets were lysed in lysis buffer (Beyotime, China) which additionally included a protease inhibitor cocktail (Beyotime, China) and phosphatase inhibitor cocktail (Beyotime, China). Cells were incubated on ice for 30 minutes and then centrifuged at 4 °C, 12000 rpm for 10 minutes to obtain the supernatant as cell lysate. The concentrations of protein in cell lysate were determined by Micro BCA™ Protein Assay Kit (ThermoFisher, USA). 4×SDS-PAGE Sample Loading Buffer (SolarBio, China) was added into cell lysate contained 25 μg of total protein and, after boiling, the mixture was electrophoresed in polyacrylamide gel. After electrophoresis, proteins on the gel were transferred to PVDF membrane, and the membrane was cut at position close to the molecular weights of proteins whose expression was examined (pH2AX (CST, USA), GAPDH (ZSGB-BIO, China)).

The mark [4] stands for this setting: neutral comet assay, FIGS. 5A-5B.

Turning to `CN1C/C=C/CCOc2cccc(c2)-c2ccnc(n2)Nc2cccc(c2)C1` [TG02, (16E)-14-methyl-20-oxa-5,7,14,27-tetraazatetracyclo[19.3.1.1^2,6. 1^8,12]heptacosa-1(25),2(27),3,5,8,10,12(26),16,21,23-decaene], in the experiment on Hucct1R132H/+ cells, the “sensitivity to DNA damage induced by TG02 (phosphorylated γH2AX)” value was “cells with IDH1 mutation are more sensitive to DNA damage induced by TG02”. For the same compound, the “selective DNA damage” value with mutant IDH1 cancer cells is “selectively induces DNA damage and cell-killing in mutant IDH1 cancer cells relative to homozygous wild-type IDH1 cancer cells”. The selective cell-killing entry with mutant IDH1 cancer cells was “selectively induces DNA damage and cell-killing in mutant IDH1 cancer cells relative to homozygous wild-type IDH1 cancer cells”. For the same compound, the “sensitivity to TG02 (apoptosis)” value is “more sensitive to TG02 than IDH1-WT (Hucct-1) cells” in the experiment on HT-1080; “more sensitive to TG02 than IDH1-WT (Hucct-1) cells” with Hccc-9810 (0.2 μM TG02, IDH1-mutant cholangiocarcinoma Hccc-9810 (printed Hcc-9810), compared with IDH1-WT (Hucct-1), FIGS. 2A-2B); “more sensitive to TG02 than IDH1-WT (Hucct-1) cells” with RBE. The “sensitivity to DNA damage induced by TG02 (Tail moment)” value in the experiment on Hucct1^R132H/+ cells is recorded as “cells with IDH1 mutation are more sensitive to DNA damage induced by TG02”; in experiment [1] (0.2 μM TG02, 48 h, HT-1080, compared with Hucct1 treated with TG02, FIG. 7A), “cells with IDH1 mutation are more sensitive to DNA damage induced by TG02”. Moreover, the “TG02-induced DNA damage” value in experiment [1] (48 h, neutral comet assay, FIGS. 5A-5B) is listed as “TG02-induced DNA damage in mutant IDH1 (HT-1080) cells”. Moreover, the TG02-induced apoptosis entry in the experiment with Hccc-9810 (TG02 for 72 h, without exogenous α-KG, FIG. 4) is “TG02-induced apoptosis of mutant IDH1 (Hccc-9810) cells”. In addition, the “TG02 sensitivity (apoptosis)” value in experiment [2] is on record as “increased TG02 sensitivity can be conferred onto IDH1-WT (Hucct-1) cells by transfection of mutated IDH1”.

In the case of `O=C(O)CCC(=O)C(=O)O` [α-KG, α-ketoglutarate], the “rescue of TG02-induced DNA damage” value in [1] (setting [4]) was “can be rescued by addition of exogenous α-KG or AG-120”. For the same compound, the “rescue of TG02-induced apoptosis” value in the experiment on Hccc-9810 (α-KG pretreatment 24 h, then TG02 for 72 h, FIG. 4) is on record as “can be rescued by addition of exogenous substrate α-ketoglutarate (α-KG)”.

On to `N#Cc1ccnc(N2C(=O)CC[C@H]2C(=O)N(c2cncc(F)c2)[C@H](C(=O)NC2CC(F)(F)C2)c2ccccc2Cl)c1` [AG-120, ivosidenib], for which, in [3], the “rescue of TG02-induced DNA damage (pH2AX)” value is listed as “TG02-induced DNA damage was rescued only in mutant IDH1 cells (Hccc-9810)”. In [1] (setting [4]), the “rescue of TG02-induced DNA damage” value is recorded as “can be rescued by addition of exogenous α-KG or AG-120”.

Source of the values: patent US20260335327A1, “IDH MUTATIONS AS BIOMARKERS FOR ZOTIRACICLIB THERAPY” (Cothera Bioscience, Inc., priority 2022, published 2026).
